Laboratory results published in patent US20170304386A1, “METHOD FOR INHIBITING SURVIVAL, TUMORIGENESIS AND METASTASIS OF CANCER CELLS AND/OR CANCER STEM CELLS” (priority 2014, published 2017).
Entries after “also recorded” stand apart in the source; their conditions may differ. Residues, ends and D or L forms follow the SMILES beside them. *: point of attachment. Cbz = O=C(OCc1ccccc1)*

Assays:
Assay type in all cases: cell-based, human
[1] = tested on: S727 phosphorylation of STAT3; assay: Western blot analysis of STAT3 S727 phosphorylation in CCS cells
Experimental: FIGS. 7a-7m show the PP2A regulates STAT3 activation at S727 and mediates suspension survival ability in TICs. […] The results are expressed as mean±SD of three independent experiments. Asterisks indicate significant differences determined by student's t-test. Bar=20 μm.
Cells were lysed and protein was extracted using M-PER (Pierce, Rockford, Ill.) plus protease inhibitor cocktail (Pierce), and the protein concentrations were determined by the BCA assay (Pierce). Aliquots of protein lysates were separated on SDS-10% polyacrylamide gels and transferred onto poly-vinylidenedifluoride (PVDF) membrane, which was blocked with 5% milk (Bio-Rad, Richmond, Calif.) in TBST. The membrane was then hybridized with primary antibodies followed by corresponding secondary antibodies, and then detected using a chemiluminescence assay (Millipore, Billerica, Mass.). Membranes were exposed to X-ray film to visualize the bands (Amersham Pharmacia Biotech, Piscataway, N.J.). Antibodies against pSTAT3 (S727) (1:1000), pSTAT3 (Y705) (1:1000), STAT3 (1:2000), PP2A C subunit (1:2000), pAkt (S473) (1:1000), β-tubulin (1:2000), Flag (1:2000), pAkt (T308) (1:1000), Akt (1:2000), ERK (1:2000), pP38 (T180 and Y182) (1:1000), P38 (1:2000), pJNK (1:1000), and pmTOR (S2448) (1:1000) were purchased from Cell Signaling Technologies. Antibodies against pPP2A (Y307) (1:2000), Oct4 (1:500), Nanog (1:500), Histone H1 (1:1000), and Sox2 (1:500) were purchased from Santa Cruz Biotechnology Inc. Antibodies against pFAK (Y397) (1:1000) were purchased from GeneTex (San Antonio, Tex.). Antibody against Col17a1 was purchased from Abcam. Antibody against Laminin y2 (1:1000) was purchased from Chemicon (Temecula, Calif.). Antibody against cleaved-caspase 3 (1:1000) was purchased from Epitomics (Burlingame, Calif.). Antibody against pERK (1:1000) was purchased from Biosource (Camerillo, Calif.).

[2] = tested on: A549 cells; assay: Migration assay (Boyden chambers); conditions: PMA 100 nM, 1,10-phenanthroline 20 μM
Experimental: (§1) Knockdown of ADAMS or ADAM10 inhibited shedding of Collagen XVII and reduced laminin-5 expression in A549 cells cultured in spheroid culture.
Cell migration assay was performed using Boyden chambers. At the end of the assay, cells in the upper chamber and on the upper filter surface were removed, whereas cells on the lower filter surface were fixed with ethanol and stained with Giemsa (Sigma-Aldrich). The number of migrating cells was determined by counting cells in 10 random fields/filter at 200× magnification. Data were calculated as a percentage of migrated cells in the absence of chemoattractant or adherent culture, which was considered as 100%. All experiments were performed in triplicate.

[3] = tested on: A549 cells; assay: Wound healing assay; conditions: PMA 100 nM, 1,10-phenanthroline 20 μM
Experimental: as §1
An in vitro model of the ability of A549 and CL1-1 lung cancer cells to migrate in a monolayer culture was used to measure wound healing ability. Lung cancer cells were seeded into 6-well plates and incubated overnight. The cells were disrupted by scraping them with a […] pipette tip. […] The percent of wounded area filled was calculated as follows: [(mean wound width-mean remaining width)/mean wound width]×100(%).

[4] = tested on: EMT markers; assay: Western blot of Snail and EMT markers in A549 spheroid culture; conditions: PMA 100 nM, 1,10-phenanthroline 20 μM
Experimental: as §1
(§2) The lung cancer cell lines A549 and CL1-1 were obtained from the American Type Culture Collection. Cells were grown in Dulbecco's Modified Eagle Medium (DMEM) (Gibco, Grand Island, N.Y.) containing 10 units/ml penicillin, 10 μg/ml streptomycin, 2 mM glutamine, and 10% fetal bovine serum (FBS; Gibco), in a 37° C. humidified atmosphere with 5% CO2. For enrichment of cancer stem-like cells (CSCs) in spheroid culture, lung cancer cells were suspended in tumor sphere medium consisting of serum-free DMEM/F12 (Gibco), N2 supplement (Gibco), human recombinant epidermal growth factor (EGF) (20 ng/ml, PeproTech, Rocky Hill, N.J.), and basic fibroblastic growth factor (bFGF) (10 ng/ml, PeproTech). Cell colonies >100 μm in diameter and >50% in area showing 3-dimensional structure and blurred cell margins were defined as spheres. Sphere numbers were counted at day 12 of culture. Cells were harvested and protein lysates were collected for further experiments. Treatment reagents included FAK inhibitor (20 μM) (Calbiochem, San Diego, Calif.; Merk, Schwalbach, Germany), LY294002 (10 μM) (Calbiochem), 1,10-phenanthroline (20 μM) (Sigma-Aldrich; St. Louis, Mo.), PMA (100 nM) (Sigma-Aldrich) and Cyclohexamide (50 μg/ml) (Calbiochem).
(§3) Cell extracts were prepared with M-PER (Pierce, Rockford, Ill.) plus protease inhibitor cocktail (Halt™; Pierce) and protein concentrations were determined using the bicinchoninic acid (BCA) assay (Pierce). Aliquots of protein lysates were separated on SDS-10% polyacrylamide gels and transferred to PVDF membrane filters, followed by blocking with 5% blotting grade milk (Bio-Rad, Hercules, Calif.) in TBST (20 mM Tris-HCl [pH 7.6], 137 mM NaCl, 1% Tween 20). Membranes were then probed with the indicated primary antibodies, reacted with the corresponding secondary antibodies, and results detected using a chemiluminescence assay (Millipore, Billerica, Mass.). Membranes were exposed to X-ray film to visualize the bands (Amersham Pharmacia Biotech, Piscataway, N.J.).

[5] = tested on: laminin-5; assay: Western blot of laminin-5 level and degradation in A549 spheroid culture; conditions: for level of laminin 5: A549 spheroid culture 12 days, PMA 100 nM, 1,10-phenanthroline 20 μM; for laminin 5 protein half-life / degradation: A549 suspension cells, spheroid medium containing cycloheximide 50 μg/ml
Experimental: as §1, §2, §3

[6] = tested on: Col XVII; assay: Immunoblot of Col XVII shedding in A549 spheroid culture; conditions: A549 spheroid culture 12 days; PMA 100 nM, 1,10-phenanthroline 20 μM
Experimental: as §1
The lung cancer cell lines A549 and CL1-1 were obtained from the American Type Culture Collection. Cells were grown in Dulbecco's Modified Eagle Medium (DMEM) (Gibco, Grand Island, N.Y.) containing 10 units/ml penicillin, 10 μg/ml streptomycin, 2 mM glutamine, and 10% fetal bovine serum (FBS; Gibco), in a 37° C. humidified atmosphere with 5% CO2. For enrichment of cancer stem-like cells (CSCs) in spheroid culture, lung cancer cells were suspended in tumor sphere medium consisting of serum-free DMEM/F12 (Gibco), N2 supplement (Gibco), human recombinant epidermal growth factor (EGF) (20 ng/ml, PeproTech, Rocky Hill, N.J.), and basic fibroblastic growth factor (bFGF) (10 ng/ml, PeproTech). […] Sphere numbers were counted at day 12 of culture. […]
Cell extracts were prepared with M-PER (Pierce, Rockford, Ill.) plus protease inhibitor cocktail (Halt™; Pierce) and protein concentrations were determined using the bicinchoninic acid (BCA) assay (Pierce). […] Membranes were then probed with the indicated primary antibodies, reacted with the corresponding secondary antibodies, and results detected using a chemiluminescence assay (Millipore, Billerica, Mass.). […]

[7] = tested on: A549 cells; assay: Invasion assay (Matrigel Invasion Chambers); conditions: PMA 100 nM, 1,10-phenanthroline 20 μM
Experimental: as §1
Cell invasion assays were performed using 24-well BD Biocoat Matrigel Invasion Chambers (Becton, Dickinson and Company, San Jose, Calif.) according to the manufacturer's instructions. In brief, cells were seeded into upper inserts (2.5×10^4 cells/insert) in DMEM supplemented with 0.1% bovine serum albumin (BSA). Outer wells were filled with DMEM containing 10% FBS as the chemoattractant. After 24 hours of incubation, the membranes with invaded cells were stained with Giemsa (Sigma), washed and mounted on slides. The entire membrane with invading cells was counted by light microscopy. Data are expressed as the number of invaded cells/well. Each assay was performed in triplicate and repeated at least twice.

[8] = tested on: laminin 5; assay: Western blot of laminin 5 protein with cycloheximide with or without MG132; conditions: TICs with Col17a1 knockdown; 50 μg/ml cycloheximide; 10 μM MG132; 6, 12, 24, 36 hours
Experimental: FIGS. 5a-5k show the Col XVII-mediated suspension survival ability depends on laminin 5 and FAK activation. FIGS. 5a and 5b show the Bulk cancer cells (Bulk) and spheroid culture-enriched TICs (SPH) were cultured in spheroid condition for 10 h, followed by FIG. 5a (western blot assay), and FIG. 5b (immunofluorescence) followed by examination with a confocal microscope. […] FIGS. 5e-5f show the spheroid cultures of cells overexpressed with control shRNAs (CTR) or different Col17a1 shRNAs, si(1) and si(2) were assayed for mRNA and protein levels (FIG. 5e), and immunostaining (CCS)(FIG. 5f) followed by examination with a confocal microscope. FIG. 5g (top), western blot analysis for spheroid culture-enriched TICs expressing control shRNAs (CTR) or Col17a1 shRNAs, si(1) or si(2), treated with 50 μg/ml cycloheximide in the presence or absence of 10 μM MG132 for 6, 12, 24, and 36 hours. FIG. 5g (bottom), graphical representation of the relative band intensities of laminin 5 protein. […]
Cells were lysed and protein was extracted using M-PER (Pierce, Rockford, Ill.) plus protease inhibitor cocktail (Pierce), and the protein concentrations were determined by the BCA assay (Pierce). […] The membrane was then hybridized with primary antibodies followed by corresponding secondary antibodies, and then detected using a chemiluminescence assay (Millipore, Billerica, Mass.). […]

[9] = tested on: spheres formed by HT29 spheroid culture; assay: Live/Dead analysis of spheres pre-treated with enzymes, then suspension culture; conditions: pre-treatment of spheres with enzyme, then suspension culture 24 hours
[10] = CCS bulk cancer cells, 0, 0.1, 0.5, 1 nM OA for 1 hour or 0, 5, 10, 15 nM CA for 30 min

COC[C@@H]([C@H](O)[C@H](O)C(=O)NCC[C@H](C)c1nc(/C=C/C[C@@H]2O[C@]3(C[C@@H](O)[C@@H]2C)O[C@H]([C@H](C[C@H](O)[C@H](C)[C@H](O)[C@H](C)/C=C(C)/C(C)=C/C=C/C(C)=C\C#N)OC)[C@H](OP(=O)(O)O)C3(C)C)co1)N(C)C [calyculin A]
S727 phosphorylation of STAT3 [1, 10]: increased S727 phosphorylation of STAT3 in a dose-dependent manner

C=C1[C@@H](O)[C@@H]2O[C@]3(CC[C@H](/C=C/[C@@H](C)[C@@H]4CC(C)=C[C@@]5(O[C@H](C[C@@](C)(O)C(=O)O)CC[C@H]5O)O4)O3)CC[C@H]2O[C@@H]1[C@@H](O)C[C@H](C)[C@H]1O[C@@]2(CCCCO2)CC[C@H]1C [okadaic acid]
S727 phosphorylation of STAT3 [1, 10]: increased S727 phosphorylation of STAT3 in a dose-dependent manner

CCCCCCCCCCCCCC(=O)O[C@@H]1[C@@H](C)[C@@]2(O)[C@@H](C=C(CO)C[C@]3(O)C(=O)C(C)=C[C@@H]23)[C@@H]2C(C)(C)[C@]12OC(C)=O [PMA]
cell migration [2]: enhanced
wound closure [3]: enhanced
EMT markers [4]: activated
expression of Snail [4]: enhanced
expression of epithelial marker E-cadherin [4]: decreased
expression of mesenchymal markers [4]: increased
level of laminin 5 [5]: positively; also recorded: enhanced
laminin 5 protein half-life / degradation [5]: longer half-life; also recorded: decreased degradation
shedding of COL XVII [6]: increased; also recorded: stimulated
invasion [7]: enhanced

CC(C)C[C@@H](C=O)NC(=O)[C@H](CC(C)C)NC(=O)[C@H](CC(C)C)NC(=O)OCc1ccccc1 [MG132] (Cbz-Leu-Leu-Leu-aldehyde)
laminin 5 protein level [8]: restored

c1cnc2c(c1)ccc1cccnc12 [1,10-phenanthroline]
cell migration [2]: reduced
wound closure [3]: reduced
EMT markers [4]: reduced
expression of Snail [4]: reduced
expression of epithelial marker E-cadherin [4]: increased
expression of mesenchymal markers [4]: decreased
level of laminin 5 [5]: negatively
laminin 5 protein half-life / degradation [5]: degraded faster
shedding of COL XVII [6]: decreased
invasion [7]: reduced

CCCCCCCCCCCCCC=CC(O)C(CO)NC(=O)CCCCC (stereo not shown) [ceramide C6]
S727 phosphorylation of STAT3 ([1]; CCS spheroid culture-enriched TICs, 50 nM ceramide C6 for 24 hours): reduced S727 phosphorylation of STAT3

chymotrypsin
cell death in suspension culture (Live/Dead analysis) [9]: cause cell death
